Counter-ions that a name gives are not always drawn.
Experiments:
[1] = system: MV4-11 cell Bab/c nude mouse tumor model; assay: In vivo tumor growth inhibition experiment; details: for effect on body weight of nude mice: compared with the solvent control group
Procedure: Xenotransplantation in immunodeficient mice is an effective model for testing in vivo antitumor activity of compounds in animals. Bab/c immunodeficient mice are one of the most commonly used tumor cell xenografts. […] Log-phase MV4-11 cells were collected in a 50 ml of centrifuge tube (Corning), centrifuged at 1,700 rpm for 3 minutes, and the supernatant was discarded. Cells were suspended in a 50 ml 1×RPMI 1640 serum-free medium, and centrifuged, the supernatant was discarded and resuspension was performed. The cells were counted (Countess® Automated Cell Counting Apparatus, Invitrogen), prepared into […], placed on ice, and inoculated subcutaneously with 10×10^6 (0.2 ml) to the right back of 6-8-week female Bab/c nude mice (about 20 g in weight) (purchased from Shanghai Sippr-BK Experimental Animal Co., Ltd., Animal Center of Shanghai University of Traditional Chinese Medicine, approved by Ethical Committee of Shanghai University of Traditional Chinese Medicine). When the tumor grew to a size of 100-200 mm^3, animals were randomly grouped and earmarked and weighed. The treatment group consisted of 3 to 6 nude mice in each group. Drugs were prepared into different concentrations of milky suspension with a solvent PTP solution (30% polyethylene glycol 400, 0.5% Tween-80, 2.5% propylene glycol). Animals were given by oral gavage continuously at a concentration of 0.1 ml/10 g body weight, with a dose range of 0.1-200 mg/kg (the purity of the test compound of the present invention was 99% or more, and the proportion of single impurity was not more than 0.1%). In the control group, 3 to 6 nude mice in each group were given the same volume (0.1 ml/10 g body weight) of solvent PTP solution, and the tumors were measured 3 to 4 times per week. When the average tumor volume in the control group reached 1500 mm^3, or on the 28th day of administration, the experiment ended, then the tumor was weighed and subjected to molecular pathology assay.
The tumor volume was calculated as V=½a×b^2, where a is the length and b is the width. The relative tumor volume (RTV) was calculated based on the measured results and the formula was RTV=Vt/V0, where V0 is the measured tumor volume when administered in divided cages (i.e., do), and Vt is the tumor volume at each measurement.

Solubility test = format: physicochemical; details: in water at 25° C.±2° C.
Procedure: The fine powder of the test sample was weighed into an appropriate amount of water at 25° C.±2° C. and shaken vigorously for 30 seconds every 5 minutes so that it was fully dissolved within 30 minutes. If no visible solute particles were observed, it was considered completely dissolved. “Readily soluble” means that 1 g of the test sample could be dissolved in 1-10 ml of water; and “soluble” means that 1 g of the test sample could be dissolved in 10-30 ml of water; “slightly soluble” means that 1 g of the test sample could be dissolved in 30-100 ml of water; and “sparingly soluble” means that 1 g of the test sample could be dissolved in 100-1,000 ml of water; “nearly insoluble or insoluble” means that 1 g of the test sample could not be completely dissolved in 10,000 ml of water.

[2] = Stability test: high temperature test (60° C.); format: physicochemical; details: exposed at 60° C. for 10 days, HPLC
Procedure: The test samples were placed into an integrated drug stability test chamber (YSEI) in an exposed way at 60° C. for 10 days. Samples were taken on the 5th and 10th days and tested according to the drug stability test indices.
(§1) An appropriate amount of test samples was taken and dissolved in acetonitrile-water (1:1), and quantitatively diluted to a solution of about 0.3 mg/ml. 20 ul of solution was injected into a liquid chromatograph (Agilent 1260 Infinity), the chromatogram was then recorded and calculated according to the percentage area method. The mobile phase was a phosphate buffer and acetonitrile aqueous solution, and then a gradient elution was carried out.

[3] = Stability test: high humidity test (90%); format: physicochemical; details: 25° C., relative humidity 90%±5%, 10 days, HPLC
Procedure: The test samples were placed into an integrated drug stability test chamber (YSEI) in an exposed way at 25° C. and relative humidity of 90%±5% for 10 days. Samples were taken on the 5th and 10th days and tested according to the drug stability test indices.
as §1

[4] = Stability test: intense light test (4500LX); format: physicochemical; details: 4500LX±500LX light for 10 days, HPLC
Procedure: The test samples were placed into an integrated drug stability test chamber (YSEI) in an exposed way under 4500LX±500LX light for 10 days. Samples were taken on the 5th and 10th days and tested according to the drug stability test indices.
as §1

[5] = drug dose 2.5 mg/kg, 15th day of administration

CC(C)(C)c1cc(NC(=O)Nc2ccc(-n3cnc4cc(OCCN5CCOCC5)ccc43)cc2)no1 [Compound 16, 1-(5-tert-butyl-isoxazol-3-yl)-3-{4-[5-(2-morpholin-4-yl-ethoxyl)-benzimidazol-1-yl]-phenyl}-urea]
Tumor Inhibition Rate (%) ([1]; Dose 2.5 mg/kg, Day 6): 82.4% | Tumor Inhibition Rate (%) ([1]; Dose 2.5 mg/kg, Day 10): 96.8% | Tumor Inhibition Rate (%) ([1]; Dose 2.5 mg/kg, Day 15): 100% | Tumor Inhibition Rate (%) ([1]; Dose 2.5 mg/kg, Day 20): 100% | tumor outcome [1, 5]: tumor disappears completely | effect on body weight of nude mice ([1]; drug dose 2.5 mg/kg): no significant effect | Solubility (Solubility test; listed as 16 Free base): insoluble (“nearly insoluble or insoluble” means that 1 g of the test sample could not be completely dissolved in 10,000 ml of water)

COCCOc1ccc2c(c1)ncn2-c1ccc(NC(=O)Nc2cc(C(C)(C)C)n[nH]2)cc1 [Compound 77 Mesylate, 1-(5-tert-butyl-2H-pyrazol-3-yl)-3-{4-[5-(2-methoxyl-ethoxyl)-benzimidazol-1-yl]-phenyl}-urea]
High temperature (60° C.) [2]: stable | High Humidity (90%) [3]: stable | Lighting (4500 LX) [4]: stable | Solubility (Solubility test; listed as 77 Mesylate): soluble (“soluble” means that 1 g of the test sample could be dissolved in 10-30 ml of water)

CC(C)(C)c1cc(NC(=O)Nc2ccc(-n3cnc4ccccc43)cc2)[nH]n1 [Compound 68, 1-(4-benzimidazol-1-yl-phenyl)-3-(5-tert-butyl-2H-pyrazol-3-yl)-urea]
Tumor Inhibition Rate (%) ([1]; Dose 2.5 mg/kg, Day 6): 14.6% | Tumor Inhibition Rate (%) ([1]; Dose 2.5 mg/kg, Day 10): 16.2% | Tumor Inhibition Rate (%) ([1]; Dose 2.5 mg/kg, Day 15): 17.8% | Tumor Inhibition Rate (%) ([1]; Dose 2.5 mg/kg, Day 20): 37.5% | Tumor Inhibition Rate (%) ([1]; Dose 2.5 mg/kg, Day 28): 35.3% | Tumor Inhibition Rate (%) ([1]; Dose 5 mg/kg, Day 6): 67.9% | Tumor Inhibition Rate (%) ([1]; Dose 5 mg/kg, Day 10): 71.6% | Tumor Inhibition Rate (%) ([1]; Dose 5 mg/kg, Day 15): 58.5% | Tumor Inhibition Rate (%) ([1]; Dose 5 mg/kg, Day 20): 50.1% | Tumor Inhibition Rate (%) ([1]; Dose 5 mg/kg, Day 28): 62.5% | Tumor Inhibition Rate (%) ([1]; Dose 10 mg/kg, Day 6): 68.9% | Tumor Inhibition Rate (%) ([1]; Dose 10 mg/kg, Day 10): 81.7% | Tumor Inhibition Rate (%) ([1]; Dose 10 mg/kg, Day 15): 90.2% | Tumor Inhibition Rate (%) ([1]; Dose 10 mg/kg, Day 20): 94.8% | Tumor Inhibition Rate (%) ([1]; Dose 10 mg/kg, Day 28): 98.7% | Tumor Inhibition Rate (%) ([1]; Dose 25 mg/kg, Day 6): 86.0% | Tumor Inhibition Rate (%) ([1]; Dose 25 mg/kg, Day 10): 92.5% | Tumor Inhibition Rate (%) ([1]; Dose 25 mg/kg, Day 15): 93.4% | Tumor Inhibition Rate (%) ([1]; Dose 25 mg/kg, Day 20): 96.7% | Tumor Inhibition Rate (%) ([1]; Dose 25 mg/kg, Day 28): 100.0% | Tumor Inhibition Rate (%) ([1]; Dose 50 mg/kg, Day 6): 92.8% | Tumor Inhibition Rate (%) ([1]; Dose 50 mg/kg, Day 10): 98.7% | Tumor Inhibition Rate (%) ([1]; Dose 50 mg/kg, Day 15): 100.0% | Tumor Inhibition Rate (%) ([1]; Dose 100 mg/kg, Day 6): 94.2% | Tumor Inhibition Rate (%) ([1]; Dose 100 mg/kg, Day 10): 100.0% | Tumor Inhibition Rate (%) ([1]; Dose 100 mg/kg, Day 15): 100.0% | Tumor Inhibition Rate (%) ([1]; Dose 200 mg/kg, Day 6): 98.9% | Tumor Inhibition Rate (%) ([1]; Dose 200 mg/kg, Day 10): 100.0% | Tumor Inhibition Rate (%) ([1]; Dose 200 mg/kg, Day 15): 100.0% | effect on body weight of nude mice ([1]; dose ≤25 mg/kg): no significant effect | inhibition rate of tumor growth ([1]; dose ≥25 mg/kg, oral gavage, 6th day after administration): more than 80% | tumor outcome ([1]; dose ≥25 mg/kg, oral gavage, 28th day): tumor disappears completely

COCCOc1ccc2c(c1)ncn2-c1ccc(NC(=O)Nc2cc(C(C)(C)C)n[nH]2)cc1 [Compound 77, 1-(5-tert-butyl-2H-pyrazol-3-yl)-3-{4-[5-(2-methoxyl-ethoxyl)-benzimidazol-1-yl]-phenyl}-urea]
Tumor Inhibition Rate (%) ([1]; Dose 2.5 mg/kg, Day 6): 79.2% | Tumor Inhibition Rate (%) ([1]; Dose 2.5 mg/kg, Day 10): 93.2% | Tumor Inhibition Rate (%) ([1]; Dose 2.5 mg/kg, Day 15): 100% | Tumor Inhibition Rate (%) ([1]; Dose 2.5 mg/kg, Day 20): 100% | tumor outcome [1, 5]: tumor disappears completely | effect on body weight of nude mice ([1]; drug dose 2.5 mg/kg): no significant effect | Solubility (Solubility test; listed as 77 Free base): insoluble (“nearly insoluble or insoluble” means that 1 g of the test sample could not be completely dissolved in 10,000 ml of water)

COc1ccc2c(c1)ncn2-c1ccc(NC(=O)Nc2cc(C(C)(C)C)n[nH]2)cc1 [Compound 71, 1-(5-tert-butyl-2H-pyrazol-3-yl)-3-[4-(5-methoxyl-benzimidazol-1-yl)-phenyl]-urea]
Tumor Inhibition Rate (%) ([1]; Dose 0.5 mg/kg, Day 6): 37.2% | Tumor Inhibition Rate (%) ([1]; Dose 0.5 mg/kg, Day 10): 34.5% | Tumor Inhibition Rate (%) ([1]; Dose 0.5 mg/kg, Day 15): 32.6% | Tumor Inhibition Rate (%) ([1]; Dose 0.5 mg/kg, Day 20): 36.9% | Tumor Inhibition Rate (%) ([1]; Dose 0.5 mg/kg, Day 28): 37.3% | Tumor Inhibition Rate (%) ([1]; Dose 1 mg/kg, Day 6): 62.2% | Tumor Inhibition Rate (%) ([1]; Dose 1 mg/kg, Day 10): 64.5% | Tumor Inhibition Rate (%) ([1]; Dose 1 mg/kg, Day 15): 69.6% | Tumor Inhibition Rate (%) ([1]; Dose 1 mg/kg, Day 20): 65.4% | Tumor Inhibition Rate (%) ([1]; Dose 1 mg/kg, Day 28): 66.6% | Tumor Inhibition Rate (%) ([1]; Dose 2.5 mg/kg, Day 6): 63.7% | Tumor Inhibition Rate (%) ([1]; Dose 2.5 mg/kg, Day 10): 76.8% | Tumor Inhibition Rate (%) ([1]; Dose 2.5 mg/kg, Day 15): 77.9% | Tumor Inhibition Rate (%) ([1]; Dose 2.5 mg/kg, Day 20): 80.5% | Tumor Inhibition Rate (%) ([1]; Dose 2.5 mg/kg, Day 28): 83.8% | Tumor Inhibition Rate (%) ([1]; Dose 5 mg/kg, Day 6): 84.5% | Tumor Inhibition Rate (%) ([1]; Dose 5 mg/kg, Day 10): 94.3% | Tumor Inhibition Rate (%) ([1]; Dose 5 mg/kg, Day 15): 98.8% | Tumor Inhibition Rate (%) ([1]; Dose 5 mg/kg, Day 20): 100.0% | Tumor Inhibition Rate (%) ([1]; Dose 5 mg/kg, Day 28): 100% | Tumor Inhibition Rate (%) ([1]; Dose 10 mg/kg, Day 6): 87.2% | Tumor Inhibition Rate (%) ([1]; Dose 10 mg/kg, Day 10): 96.4% | Tumor Inhibition Rate (%) ([1]; Dose 10 mg/kg, Day 15): 99.8% | Tumor Inhibition Rate (%) ([1]; Dose 10 mg/kg, Day 20): 100% | Tumor Inhibition Rate (%) ([1]; Dose 10 mg/kg, Day 28): 100% | Tumor Inhibition Rate (%) ([1]; Dose 25 mg/kg, Day 6): 90.0% | Tumor Inhibition Rate (%) ([1]; Dose 25 mg/kg, Day 10): 98.0% | Tumor Inhibition Rate (%) ([1]; Dose 25 mg/kg, Day 15): 100.0% | Tumor Inhibition Rate (%) ([1]; Dose 25 mg/kg, Day 20): 100.0% | Tumor Inhibition Rate (%) ([1]; Dose 25 mg/kg, Day 28): 100% | Tumor Inhibition Rate (%) ([1]; Dose 50 mg/kg, Day 6): 91.6% | Tumor Inhibition Rate (%) ([1]; Dose 50 mg/kg, Day 10): 99.0% | Tumor Inhibition Rate (%) ([1]; Dose 50 mg/kg, Day 15): 100.0% | Tumor Inhibition Rate (%) ([1]; Dose 200 mg/kg, Day 6): 93.1% | Tumor Inhibition Rate (%) ([1]; Dose 200 mg/kg, Day 10): 100.0% | Tumor Inhibition Rate (%) ([1]; Dose 200 mg/kg, Day 15): 100.0% | tumor growth inhibitory activity compared with compound 68 ([1]; MV4-11 xenograft): stronger tumor growth inhibitory activity | tumor growth inhibitory activity ([1]; dose of 1 to 2.5 mg/kg, oral gavage): obvious tumor growth inhibitory activity | effect on body weight of nude mice ([1]; dose ≤25 mg/kg): no significant effect | Solubility (Solubility test; listed as 71 Free base): insoluble (“nearly insoluble or insoluble” means that 1 g of the test sample could not be completely dissolved in 10,000 ml of water)

Reference: patent publication US10647680B2, “Urea compound, preparation method therefor and medical use thereof” (Ancureall Pharmaceutical (Shanghai) Co., Ltd., priority 2016, dated 2020)
